Measured values published in patent publication US20030228357A1, “Dry granulated formulations of azithromycin” (Pfizer Inc., priority 2002, published 2003).
Entries after “also recorded” stand apart in the source; their conditions may differ.

What was measured:
Format in all cases: physicochemical
[1] = Tablet hardness, Schleuniger hardness tablet tester
[2] = as above; remark: listed apart in the source
Protocol: (§1) All four formulations were compressed on the compaction simulator using either 0.344″×0.688″ oval tooling, or ½″ standard round concave (SRC) tooling. The tablets were tested for hardness (kP scale), using a Schleuniger hardness tablet tester (Dr. Schleuniger Pharmatron AG, Solothurn, Switzerland), and for friability (100 rotations/4 minutes) using a Vanderkamp Friabulator Tablet Tester (Vankel, Cary, N.C., US).

[3] = Density and Carr's Compressibility Index (flowability) of dry blends and dry granulations
Excerpt: Carr's Compressibility Index was used to evaluate the flowability of the four dry granulations. Carr's Compressibility Index is a simple test to evaluate flowability by comparing both the initial and final (tapped) bulk volumes and the rate of packing down. A useful empirical guide to flow is given by Carr's compressibility index: Compressibility Index(%)=[(tapped density−initial density)/tapped density]×100 […] The procedure is described in Int. J. Pharm. Tech. & Prod. Mfr., 6(3) 10-16, 1985.

[4] = Indices of tableting performance (Hiestand) of bulk azithromycin; conditions: forms N, M, G, A milled, F and J unmilled
Protocol: Indices of tableting performance, for several azithromycin forms, were assessed to identify any mechanical deficiencies or attributes that may affect tablet formulation for these azithromycin forms. This assessment was performed in accordance with the procedures described in “Indices of Tableting, Performance” […] and D. P. Smith, Powder Technology 38 [1984] pp. 145-159. Specifically, the Brittle Fracture Index, BFI, was calculated from the ratio of a material's regular tensile strength to its compromised tensile strength. Strain Index, SI, was determined from the dynamic indentation hardness test. Worst Case Bonding Index was determined by assessing the extent of particle bonding remaining after decompression assuming a very short compression dwell time and a plastic mechanism of particle separation during decompression. Tableting Indices were determined for bulk azithromycin lots of six different crystalline forms, specifically forms N, M, G, A, F and J. Forms N, M and G were milled with a Fitzmill (Model JT, The Fitzpatrick Co., Elmhurst, Ill.) using a 0.027'' screen and knives at high speed in an attempt to match the smaller particle size of milled Form A. Unmilled forms F and J were evaluated “as is” due to their relatively small particle sizes.

[5] = Tablet friability, Vanderkamp Friabulator (100 rotations/4 minutes)
Protocol: Friability is a standard test known to one skilled in the art. Friability is measured under standardized conditions by weighing out a certain number of tablets (generally 20 tablets or less), placing them in a rotating Plexiglas drum in which they are lifted during replicate revolutions by a radial lever, and then dropped approximately 8 inches. After replicate revolutions (typically 100 revolutions at 25 rpm), the tablets are reweighed and the percentage of formulation abraded or chipped is calculated. The friability of the tablets, of the present invention, is preferably in the range of about 0% to 3%, and values about 1%, or less, are considered acceptable for most drug and food tablet contexts. Friability which approaches 0% is particularly preferred.
as §1

[6] = Slug (compact) hardness, Schleuniger hardness tablet tester
Excerpt: A compaction simulator was used to compress the blends. The compaction simulator was designed as a single station tablet press in which the compression dwell time can be adjusted to simulate different types of tablet presses. All the formulations were slugged on the compaction simulator configured as the Kilian RX-67 press with a dwell time of 0.3145 seconds using […] round flat face tooling. The slugs were then comminuted using a Fitz mill with a 0.125″ screen with knives forward and run at slow speed. […] The slugs were tested for hardness (kP scale), using a Schleuniger hardness tablet tester (Dr. Schleuniger Pharmatron AG, Solothurn, Switzerland).

[7] = Table 2B Run 5, Short blend, Oval tooling, compression force 18.7 kN
[8] = Table 3D, high drug loading (58.2 wt % azithromycin), DCP anhydrous, modified capsule shape tablets, target weight 450 mg
[9] = Table 4C, low drug loading, diluent DCP, anhyd., SRC (½″) tooling
[10] = Table 4C, low drug loading, diluent DCP, dihyd., Oval tooling
[11] = Table 4D, high drug loading, diluent DCP, anhyd., modified capsule shape
[12] = Table 2B Run 4, Short blend, Oval tooling, compression force 12 kN
[13] = Table 4C, low drug loading, diluent DCP, anhyd., Oval tooling
[14] = Table 4C, low drug loading, diluent DCP, dihyd., SRC (½″) tooling
[15] = 35.2 wt % azithromycin, dicalcium phosphate anhydrous diluent, Long blend method
[16] = 35.2 wt % azithromycin, dicalcium phosphate anhydrous diluent, Long blend method, slugged
[17] = 35.2 wt % azithromycin, dicalcium phosphate anhydrous diluent, Short blend method
[18] = 35.2 wt % azithromycin, dicalcium phosphate anhydrous diluent, Short blend method, slugged
[19] = Table 3A, low drug loading: 35.2 wt % azithromycin, 54.8 wt % dicalcium phosphate anhydrous, long blend
[20] = Table 3B, high drug loading: 58.2 wt % azithromycin, 31.8 wt % dicalcium phosphate anhydrous, long blend
[21] = Table 4A, low drug loading (35.2 wt % azithromycin), diluent DCP, anhyd.
[22] = Table 4A, low drug loading (35.2 wt % azithromycin), diluent DCP, dihyd.
[23] = Table 4B, high drug loading (58.2 wt % azithromycin), diluent DCP, anhyd.
[24] = Table 4B, high drug loading (58.2 wt % azithromycin), diluent DCP, dihyd.
[25] = Table 7, milled Form A lot, 58.2 wt % azithromycin, DCP anhydrous
[26] = Table 7, unmilled Form A lot, 58.2 wt % azithromycin, DCP anhydrous
[27] = Table 7A, 55.76 wt % azithromycin, lactose anhydrous, corn starch, roller compaction 850 psi, dihydrate
[28] = Table 7 Lot 1, milled, roller compaction, Roll Pressure Setting 850 psi
[29] = Table 7 Lot 2, milled, roller compaction, Roll Pressure Setting 300 psi
[30] = Table 7 Lot 3, unmilled, roller compaction, Roll Pressure Setting 500 psi
[31] = Table 7 Lot 4, unmilled, roller compaction, Roll Pressure Setting 300 psi

Question: What does the source list for `CC[C@H]1OC(=O)[C@H](C)[C@@H](O[C@H]2C[C@@](C)(OC)[C@@H](O)[C@H](C)O2)[C@H](C)[C@@H](O[C@@H]2O[C@H](C)C[C@H](N(C)C)[C@H]2O)[C@](C)(O)C[C@@H](C)CN(C)[C@H](C)[C@@H](O)[C@]1(C)O` [Form A, azithromycin dihydrate, reference compound]?
Answer: Avg Tablet Hardness ([1]; Table 2A, 35.2 wt % azithromycin, DCP anhydrous, Long blend, ½″ SRC tooling, 9.6 kN): 5.8 kP; Avg Tab Hardness [1, 7]: 8.2 kP; Avg Hardness ([1]; Table 3C, low drug loading (35.2 wt % azithromycin), DCP anhydrous, oval tablets, target weight 750 mg): 9.0 kP; Avg Hardness [1, 8]: 6.2 kP; Avg Tablet Hardness [1, 9]: 5.8 kP; Avg Tablet Hardness [1, 10]: 6.8 kP; Avg Tablet Hardness [1, 11]: 6.2 kP; Avg Tablet Hardness ([1]; Table 4D, high drug loading, diluent DCP, dihyd., modified capsule shape): 5.2 kP; Avg Tablet Hardness ([2]; Table 2A, 35.2 wt % azithromycin, DCP anhydrous, Long blend, Oval tooling, compression force 13.5 kN (A), 19 kN (F)): 9.0 kP; Avg Tab Hardness [2, 12]: 6.8 kP; Avg Tablet Hardness [2, 13]: 9.0 kP; Avg Tablet Hardness [2, 14]: 6.2 kP; Dry Blend Carr's Index [3, 15]: 44%; Dry Blend density As Is [3, 15]: 0.59 g/cc; Dry Blend density Tapped [3, 15]: 1.05 g/cc; Granulation Carr's Index [3, 16]: 26%; Granulation Density As Is [3, 16]: 0.88 g/cc; Granulation Density Tapped [3, 16]: 1.19 g/cc; Dry Blend Carr's Index [3, 17]: 43%; Dry Blend density As Is [3, 17]: 0.59 g/cc; Dry Blend density Tapped [3, 17]: 1.04 g/cc; Granulation Carr's Index [3, 18]: 32%; Granulation Density As Is [3, 18]: 0.78 g/cc; Granulation Density Tapped [3, 18]: 1.14 g/cc; Granulation Carr's Index [3, 19]: 26%; Granulation Density As Is [3, 19]: 0.89 g/cc; Granulation Density Tapped [3, 19]: 1.19 g/cc; Granulation Carr's Index [3, 20]: 30%; Granulation Density As Is [3, 20]: 0.67 g/cc; Granulation Density Tapped [3, 20]: 0.96 g/cc; Dry Granulation Carr's Index [3, 21]: 26%; Dry Granulation Density As Is [3, 21]: 0.89 g/cc; Dry Granulation Density Tapped [3, 21]: 1.19 g/cc; Dry Granulation Carr's Index [3, 22]: 18%; Dry Granulation Density As Is [3, 22]: 0.84 g/cc; Dry Granulation Density Tapped [3, 22]: 1.04 g/cc; Dry Granulation Carr's Index [3, 23]: 30%; Dry Granulation Density As Is [3, 23]: 0.67 g/cc; Dry Granulation Density Tapped [3, 23]: 0.96 g/cc; Dry Granulation Carr's Index [3, 24]: 25%; Dry Granulation Density As Is [3, 24]: 0.69 g/cc; Dry Granulation Density Tapped [3, 24]: 0.92 g/cc; Dry Blend Carr's Index [3, 25]: 47%; Dry Blend density As Is [3, 25]: 0.49 g/cc; Dry Blend density Tapped [3, 25]: 0.92 g/cc; Dry Blend Carr's Index [3, 26]: 44%; Dry Blend density As Is [3, 26]: 0.57 g/cc; Dry Blend density Tapped [3, 26]: 1.01 g/cc; Dry Granulation Density Tapped ([3]; Table 7A, 55.76 wt % azithromycin, lactose anhydrous, corn starch, roller compaction 850 psi): 0.86 g/cc; Dry Granulation Carr's Index [3, 27]: 24%; Dry Granulation Density As Is [3, 27]: 0.66 g/cc; Dry Granulation Carr's Index [3, 28]: 39%; Dry Granulation Density As Is [3, 28]: 0.55 g/cc; Dry Granulation Density Tapped [3, 28]: 0.91 g/cc; Dry Granulation Carr's Index [3, 29]: 33%; Dry Granulation Density As Is [3, 29]: 0.60 g/cc; Dry Granulation Density Tapped [3, 29]: 0.90 g/cc; Dry Granulation Carr's Index [3, 30]: 30%; Dry Granulation Density As Is [3, 30]: 0.64 g/cc; Dry Granulation Density Tapped [3, 30]: 0.92 g/cc; Dry Granulation Carr's Index [3, 31]: 26%; Dry Granulation Density As Is [3, 31]: 0.66 g/cc; Dry Granulation Density Tapped [3, 31]: 0.92 g/cc; Brittle Fracture Index (BFI) [4]: 0.10; Strain Index (SI) ([4]; dihydrate): 0.0044; Tensile Strength ([4]; dihydrate): 0.99 Mpa; Worst Case Bonding Index (BIw) × 10^2 ([4]; dihydrate): 0.9; Friability ([5]; Table 2A, 35.2 wt % azithromycin, DCP anhydrous, Long blend, Oval tooling): 2 of 5; Friability ([5]; Table 2A, 35.2 wt % azithromycin, DCP anhydrous, Long blend, ½″ SRC tooling): 1.30%; Friability [5, 12]: capped; Friability [5, 7]: capped; Friability ([5]; Table 3C, low drug loading (35.2 wt % azithromycin), DCP anhydrous, oval tablets, target weight 750 mg, dihydrate): broke during friability testing; also recorded: Broken; Friability [5, 8]: 0.50%; Friability [5, 13]: Broken; Friability [5, 9]: 1.30%; Friability [5, 10]: Broken; Friability [5, 14]: 0.94%; Friability [5, 11]: 0.50%; Avg Slug Hardness [6, 15]: 13.4 kP; Avg Slug Hardness [6, 17]: 13.7 kP; Avg Slug Hardness [6, 19]: 13 kP; Avg Slug Hardness [6, 20]: 12 kP; Avg Slug Hardness [6, 21]: 13 kP; Avg Slug Hardness [6, 22]: 11 kP; Avg Slug Hardness [6, 23]: 12 kP; Avg Slug Hardness [6, 24]: 10 kP
